Measured values taken from patent US20240174690A1, “ANNULATED 2-AMINO-3-CYANO THIOPHENES AND DERIVATIVES FOR THE TREATMENT OF CANCER” (BOEHRINGER INGELHEIM INTERNATIONAL GMBH, priority 2021, published 2024).

Tested on: GP2D cells
Experiment: GP2D proliferation assay (120 h) (colorectal cancer, G12D)
Type: cell-based
Protocol: GP2D Proliferation Assay (120 h) (Colorectal Cancer, G12D)
GP2D cells (ATCC No. CRL-5807) are dispensed into white 384-well plates, flat and white bottom (Perkin Elmer, 6007680) at a density of 500 cells per well in 40 μl DMEM (Sigma, D6429)+1×GlutaMAX (Gibco, 35050038)+10% FCS (fetal calf serum). […] Compounds (10 mM stock in DMSO) are added at logarithmic dose series using the HP Digital Dispenser D300 (Tecan), including DMSO controls and normalizing for added DMSO. For the TO time point measurement, untreated cells are analyzed at the time of compound addition. Plates are incubated for 120 h, and cell viability is measured using CellTiter-Glo luminescent cell viability reagent (Promega product code G7570). Viability (stated as percent of control) is defined as relative luminescence units RLU of each well divided by the RLU of cells in DMSO controls. IC50 values are determined from viability measurements by non-linear regression using a four parameter model.

Row | IC50 [µM] | SMILES
1 | 0.164 | C[C@H](Oc1cc(N2CCC[C@H](O)C2)nc(-c2noc3c2CCC[C@@]32CCCc3sc(N)c(C#N)c32)n1)[C@@H]1CCCN1C [II-57]
2 | 0.51 | C[C@H](Oc1cc(-c2ccn3ncnc3c2)nc(-c2noc3c2CCC[C@@]32CCCc3sc(N)c(C#N)c32)n1)[C@@H]1CCCN1C [II-104]
3 | 0.006 | C[C@H](Oc1cc(N2C[C@H](C)NC3(CC3)C2)nc(-c2onc3c2CCC[C@@]32CCCc3sc(N)c(C#N)c32)n1)[C@@H]1CCCN1C [I-8]
4 | 0.824 | C[C@H](Oc1cc(-c2cnn(C)n2)nc(-c2noc3c2CCC[C@@]32CCCc3sc(N)c(C#N)c32)n1)[C@@H]1CCCN1C [II-86]
5 | 0.585 | C[C@H](Oc1cc(-n2ccnc2)nc(-c2noc3c2CCC[C@@]32CCCc3sc(N)c(C#N)c32)n1)[C@@H]1CCCN1C [II-69]
6 | 0.003 | C[C@H](Oc1cc(N2CCNC[C@]23CCOC3)nc(-c2noc3c2CCC[C@@]32CCCc3sc(N)c(C#N)c32)n1)[C@@H]1CCCN1C [II-50]
7 | 0.276 | C[C@H](Oc1cc(-c2ccn(C[C@@H](C)O)n2)nc(-c2noc3c2CCC[C@@]32CCCc3sc(N)c(C#N)c32)n1)[C@@H]1CCCN1C [II-117]
8 | 0.001 | C[C@H](Oc1cc(N2CCNC3(CC3)C2)nc(-c2onc3c2CCC[C@@]32CCCc3sc(N)c(C#N)c32)n1)[C@@H]1CCCN1C [I-5]
9 | 0.248 | C[C@H](O)Cn1ccc(-c2cc(O[C@@H](C)[C@@H]3CCCN3C)nc(-c3noc4c3CCC[C@@]43CCCc4sc(N)c(C#N)c43)n2)n1 [II-112]
10 | 0.029 | C[C@H](Oc1cc(-n2cc3c(n2)CCNC3)nc(-c2noc3c2CCC[C@@]32CCCc3sc(N)c(C#N)c32)n1)[C@@H]1CCCN1C [II-53]
11 | 0.443 | C[C@H](Oc1cc(-c2cnsc2)nc(-c2noc3c2CCC[C@@]32CCCc3sc(N)c(C#N)c32)n1)[C@@H]1CCCN1C [II-111]
12 | 0.013 | C[C@H](Oc1cc(N2C[C@H](C)N[C@@H](C)C2)nc(-c2noc3c2CCC[C@@]32CCCc3sc(N)c(C#N)c32)n1)[C@@H]1CCCN1C [II-56]
